Reference: publication PMC5856786, “A DHODH inhibitor increases p53 synthesis and enhances tumor cell killing by p53 degradation blockage” (Nature Communications, 2018)

Tests used:
[1] = system: nucleoli in HCT116 cells; test: Immunofluorescence of nucleolin and p53; format: cell-based; conditions: Supplementary Fig. 4a
Description: Protein extracts were prepared in 1× LDS sample buffer (Invitrogen) with 100 mM DTT and separated and transferred using the Invitrogen western blotting system except in Supplementary Fig. 1c where the BioRad western blotting system was used. HRP-conjugated secondary antibodies were obtained from Dako (#P016102 and #P0211702) or Santa Cruz (#SC-2020). Immunofluorescence was performed by fixing cells in 4% paraformaldehyde freshly made in PBS for 10 min at 37 °C. Following fixation, cells were permeabilized in 0.15% Triton X-100 for 1–2 min at 37 °C followed by staining with the indicated antibodies. Images were taken using Olympus IX-71 microscope controlled by DeltaVision SoftWoRx. Image stacks were deconvolved, quick-projected and saved as tiff images to be processed using Adobe Photoshop. Antibodies to specific antigens are listed in Supplementary Table 8. All original films for blots in Fig. 1 are shown in Supplementary Figs. 9–12.
(§1) Cells were fixed in 4 % paraformaldehyde made in PBS followed by 10 min at 37 °C, permeabilization in 0.15 % Triton X-100 for 1-2 min at 37 °C, and staining with antibodies against nucleolin and p53. Images were taken using Olympus IX-71 microscope controlled by Delta Vision SoftWorx. Image stacks were deconvolved, quick-projected and saved as tiff images to be processed using Adobe PhotoShop. […]
(§2) was extracted and quantified. […]

[2] = system: total RNA in ARN8 cells; test: Total RNA quantification; format: cell-based, human
Description: as §1, with “PhotoShop. Antibodies to specific antigens are listed in Supplementary Table 8. b) ARN8” for “PhotoShop.”
as §2

[3] = system: ARN8 cells; test: SRB growth/viability assay, ARN8; format: cell-based, human; conditions: for effect on cell growth and p53 activation in presence of excess uridine: uridine 100 μM
Description: SRB assays measuring protein content were performed in 96-well plates as previously described.

[4] = system: p53-induced mRNAs in ARN8 cells; test: q-RT-PCR of p53-induced mRNAs and p53 mRNA; format: cell-based, human
Description: Supplementary Figure 1. HZ compounds increase the levels of p53-induced mRNAs. a) p53-null H1299 cells were transfected with the RGCΔ FosLacZ reporter construct and levels of p53-dependent transcription were determined by CPRG assay following a 16 h exposure to HZ00. A vector expressing wild-type p53 was used as a positive control. The average of three […]
for 1 hour prior to treatment with 2 µM nutlin-3 for an additional 18 hours. Levels of p53-induced mRNAs and p53 mRNA were determined by q-RT-PCR. tbp was used as a control.
Values correspond to the average of three technical repeats with standard deviation used for error. RNA extraction and q-RT-PCR were performed as previously described - see supplementary information7. c) HCT116 p53 wild-type or p53 deficient cells were treated […]
supplementary information for cell line description8. d) ARN8 cells treated for 6 hours with HZ00 at indicated doses. Levels of p53 mRNA were determined by q-RT-PCR. […]

[5] = system: RNA levels in ARN8 cells; test: RNASeq differential expression and gene ontology analysis; format: cell-based, human; conditions: ARN8, 5 h
Source text: Libraries were generated using the NEBNext Ultra Directional RNA Library Prep Kit for Illumina (New England Biolabs). Data are deposited at GEO with the accession code: GSE87577. […] Differential expression and gene ontology analysis are in Supplementary Data 1. Values correspond to the average of three biological repeats.

[6] = system: ARN8 cells; test: BrdU/PI flow cytometry, cell cycle distribution; format: cell-based, human
Description: (§3) Cell cycle distribution analysis was performed on a Becton Dickinson FACScan flow cytometer or FACSCalibur (BD Biosciences) following staining with propidium iodide (PI) or dual labeling with BrdU and PI[36]. These assays were analyzed using CellQuest Pro (BD Biosciences).

[7] = system: ARN8 cells; test: PI flow cytometry, sub-G1 cells, ARN8; format: cell-based, human; conditions: for DMSO control subtracted effect (cells in sub-G1) / sub-G1 cells: ARN8 72 h
Description: as §3

[8] = system: p53 levels in S-phase U2OS cells; test: p53-FITC/DNA content flow cytometry; format: cell-based; conditions: HZ05 1 μM, 72 h
Description: The upper left panel is a representative dot plot showing the gating strategy for cells expressing high p53 levels (blue: […] DMSO treated). […] A representative histogram of the fluorescence intensity of FITC-p53 in S-phase cells is shown in the lower right panel. Bar graphs show the average of three independent experiments. […] After an additional 48 h, Annexin V and PI staining was analyzed by flow cytometry. […] Inhibition of p53 degradation in the form of an mdm2 antagonist leads to death of cells in S-phase For the detection of p53, cells were treated as indicated and fixed using Fix/Perm buffer solution (eBiosciences). […] Cells were resuspended in FACS buffer (2 mM EDTA, 0.5% BSA) containing 2 μg mL^−1 FxCycle Violet (Thermo Scientific). Stained cells were acquired on LSRII (BD Biosciences) and analyzed using FlowJo software V10.2.

[9] = molecular target: recombinant human DHODH (Homo sapiens, UniProt Q02127); test: Kinetic DHODH enzyme assay (3,4-dimethoxy-5-methyl-p-benzoquinone, DCIP); format: biochemical; parameters: made in house
Description: In Fig. 5a enzyme assays were optimized and performed with 6 nM recombinant human DHODH prepared as described. The reaction mixture for these kinetic assays consisted of 1 mM DL-dihydroorotic acid, 100 µM 3,4-dimethoxy-5-methyl-p-benzoquinone (#D9150, Sigma-Aldrich), and 100 µM DCIP in enzyme buffer. A stock solution of 20 mM DCIP was prepared in enzyme buffer and filtered through filter paper (20–25 μm pore size) just before use. Loss in absorbance by DCIP was measured at 595 nm at RT in a stepped time course (8 × 2 min, 8 × 3 min, 6 × 5 min). […] Therefore, for each concentration of inhibitor tested, a value for DHODH’s Vmax was estimated by linear regression within this time frame.

[10] = system: HNDF cells; test: PI flow cytometry, sub-G1 cells, HNDF; format: cell-based, human
Description: as §3

recombinant human DHODH, sequence (Q02127 29-395 limits assumed): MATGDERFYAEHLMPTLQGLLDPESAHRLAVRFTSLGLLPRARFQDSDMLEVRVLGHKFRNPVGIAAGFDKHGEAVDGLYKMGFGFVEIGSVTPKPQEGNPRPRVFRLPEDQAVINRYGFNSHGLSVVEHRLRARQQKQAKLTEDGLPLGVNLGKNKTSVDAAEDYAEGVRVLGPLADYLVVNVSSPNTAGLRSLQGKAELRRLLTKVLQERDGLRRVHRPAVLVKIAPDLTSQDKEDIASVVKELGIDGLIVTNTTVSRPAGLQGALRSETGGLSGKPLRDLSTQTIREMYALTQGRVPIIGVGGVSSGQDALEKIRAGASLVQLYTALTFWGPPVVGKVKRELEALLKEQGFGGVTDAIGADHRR

`O=C(NC1CCCc2c1cnn2-c1ccccc1F)c1ccccn1` (stereo not drawn) [HZ00] was tested, and the effect on nucleoli [1] was “nucleoli were disrupted”, the “total RNA levels” value [2] was “drop in total RNA levels” and the “effect on cell growth and p53 activation in presence of excess uridine” value ([3]; ARN8) was “completely abolished”. For the same compound, the “mRNA of p53 target genes” value [4] was “raised the mRNA of p53 target genes”, the “log2FoldChange, drug vs DMSO, gene ENSG00000166436” value ([5]; sheet Drug HZ00vsDMSO (20 μM)) was -1.5997 and the “log2FoldChange, drug vs DMSO, gene ENSG00000197153” value ([5]; sheet Drug HZ00vsDMSO (20 μM)) was -1.477. The “log2FoldChange, drug vs DMSO, gene ENSG00000204569” value ([5]; sheet Drug HZ00vsDMSO (20 μM)) was -2.244, the “log2FoldChange, drug vs DMSO, gene ENSG00000221926” value ([5]; sheet Drug HZ00vsDMSO (20 μM)) was -1.707 and the “log2FoldChange, drug vs DMSO, gene ENSG00000277224” value ([5]; sheet Drug HZ00vsDMSO (20 μM)) was -1.408. The “accumulation of cells in S-phase” value [6] was “accumulates ARN8 cells in S-phase” and the “synergy with nutlin-3 (cell kill)” value ([7]; ARN8 in vitro, 72 h, additivity and Bliss independence models) was “synergistic cell kill”.
For `O=C(NC1CCCc2c1cnn2-c1ccccc1F)c1onc2c1CCCC2` (stereo not drawn) [HZ05], the “p53 levels in S-phase cells” value [8] was “higher levels of p53 than vehicle treated controls”, the IC50 ([9]; Fig. 5a, average of three independent repeats ± SD) was 32 ± 2 nM and the “concentration inhibiting DHODH enzymatic activity” value ([9]; authors' response in peer review file) was “below 40 nM”. The “effect of serum albumin concentration on activity” value ([3]; ARN8, 72 h, increasing BSA) was “affected to a lesser degree than brequinar”, the “effect on cell growth and p53 activation in presence of excess uridine” value ([3]; ARN8) was “prevented by addition of excess uridine” and the “concentration reducing cell viability or growth” value ([3]; cultured cells, authors' response in peer review file) was roughly 160 nM. It also gave a sub-G1 cells ([10]; HZ05 1 μM 72 h + 48 h, 2 μM nutlin-3a last 48 h) of 1.9%, a sub-G1 cells ([10]; HZ05 1 μM 72 h + 48 h, DMSO last 48 h) of 2.2% and a sub-G1 cells ([10]; HZ05 1 μM, 72 h treatment) of 1.9%. For the same compound, the sub-G1 cells ([10]; HZ05 2.5 μM, 72 h treatment) was 2.9%, the “log2FoldChange, drug vs DMSO, gene ENSG00000121101” value ([5]; sheet Drug HZ05vsDMSO (5 μM)) was -2.498 and the “log2FoldChange, drug vs DMSO, gene ENSG00000197153” value ([5]; sheet Drug HZ05vsDMSO (5 μM)) was -1.694. For the same compound, the “log2FoldChange, drug vs DMSO, gene ENSG00000204569” value ([5]; sheet Drug HZ05vsDMSO (5 μM)) was -2.424, the “log2FoldChange, drug vs DMSO, gene ENSG00000221926” value ([5]; sheet Drug HZ05vsDMSO (5 μM)) was -1.667 and the “log2FoldChange, drug vs DMSO, gene ENSG00000276410” value ([5]; sheet Drug HZ05vsDMSO (5 μM)) was -1.7121. For the same compound, the “accumulation of cells in S-phase” value [6] was “accumulation of ARN8 cells in S-phase”, the “DMSO control subtracted effect (cells in sub-G1)” value (from here on “DMSO control subtracted effect”) ([7]; HZ05 250 nM + nutlin-3a 0 µM) was 0.06 and the “DMSO control subtracted effect” value ([7]; HZ05 250 nM + nutlin-3a 5 µM) was 0.27. For the same compound, the “DMSO control subtracted effect” value ([7]; HZ05 250 nM + nutlin-3a 10 µM) was 0.48, the “DMSO control subtracted effect” value ([7]; HZ05 250 nM + nutlin-3a 15 µM) was 0.69 and the “DMSO control subtracted effect” value ([7]; HZ05 250 nM + nutlin-3a […]) was 0.61. For the same compound, the sub-G1 cells ([7]; HZ05 400 nM (Fig. 6c)) was 16.61%, the sub-G1 cells ([7]; HZ05 400 nM + nutlin-3a 1 μM) was 36.73% and the sub-G1 cells ([7]; HZ05 400 nM + nutlin-3a 2.5 μM) was 46.63%. The sub-G1 cells ([7]; HZ05 400 nM + nutlin-3a 5 μM) was 54.06%, the “DMSO control subtracted effect” value ([7]; HZ05 500 nM + nutlin-3a 0 µM) was 0.08 and the “DMSO control subtracted effect” value ([7]; HZ05 500 nM + nutlin-3a 5 µM) was 0.35. For the same compound, the “DMSO control subtracted effect” value ([7]; HZ05 500 nM + nutlin-3a 10 µM) was 0.60, the “DMSO control subtracted effect” value ([7]; HZ05 500 nM + nutlin-3a 15 µM) was 0.67 and the “DMSO control subtracted effect” value ([7]; HZ05 500 nM + nutlin-3a […]) was 0.58. The sub-G1 cells ([7]; HZ05 1 μM (Fig. 6b)) was 31.06%, the “DMSO control subtracted effect” value ([7]; HZ05 1000 nM + nutlin-3a 10 µM) was 0.56 and the “DMSO control subtracted effect” value ([7]; HZ05 1000 nM + nutlin-3a 15 µM) was 0.71. For the same compound, the “DMSO control subtracted effect” value ([7]; HZ05 1000 nM + nutlin-3a […]) was 0.62, the sub-G1 cells ([7]; HZ05 2.5 μM (Fig. 6b)) was 35.04% and the “DMSO control subtracted effect” value ([7]; HZ05 […] + nutlin-3a 0 µM) was 0.03. For the same compound, the “DMSO control subtracted effect” value ([7]; HZ05 […] + nutlin-3a 5 µM) was 0.19, the “DMSO control subtracted effect” value ([7]; HZ05 […] + nutlin-3a 10 µM) was 0.39 and the “DMSO control subtracted effect” value ([7]; HZ05 […] + nutlin-3a 15 µM) was 0.63. The “synergy with nutlin-3a (cell kill)” value ([7]; ARN8 in vitro, 72 h) was “strong synergistic cell kill”.
